Measurements from patent US20240100105A1, “BACTERIOPHAGE TREATMENT FOR ACNE AND BIOFILMS” (priority 2017, published 2024).

Assays:
[1] = test system: P. granulosum clinical isolates 2004-8, 2004-4 and 2002-1; assay: Spot/drop assay on clinical isolates of P. granulosum (2004-8, 2004-4 and 2002-1); type: cell-based; conditions: Clindamycin 1% gel ~10 μL; Erythromycin 20 μg/mL 5 μL, applied directly to bacterial lawn
Procedure: These bacterial strains show sensitivity to Clindamycin (1% gel, ˜10 μL) and Erythromycin (20 μg/mL, 5 μL) when the antibiotics are applied directly to a bacterial lawn of these strains, but are resistant to all the tested phage.

P. acnes PA1 biofilm = assay: Efficacy of phage mixtures on P. acnes biofilm; type: cell-based, Propionibacterium acnes; conditions: for Remaining log bacteria after phage or antibiotic treatment of biofilm: phage 10^5 total PFU, Erythromycin 100 μg/mL
Procedure: To test our phage against P. acnes biofilms, the following experiment is performed on biofilms produced in the laboratory. An overnight culture of PA1 is diluted 1:1 with fresh BHIS and incubated for 4 hours at 37° C. after which the culture is once again diluted 1:1 this time with anacrobized BHIS supplemented with 1% glucose (final conc. 0.5%). Next, a 96-well plate (Thermo Fisher Scientific, Waltham, Massachusetts) is seeded with 200 μL of the diluted culture per well. The wells are sealed using 8-well strip caps (Thermo Fisher Scientific, Waltham, Massachusetts). This is incubated for 3 days to let the biofilm form. After 72 hours, 10 μL of either mixture 1 (PAP-12, PA1-9 and PA1-13), mixture 2 (PA7-1, PA1-9 and PA1-13), mixture 3 (PAP-12, PA1-9, PA1-13 and PS7-1) or 2 μL of Erythromycin is added to the relevant wells. The amount of phage added per mixture corresponds to 10^5 total PFU while for the antibiotic Erythromycin, a final concentration of 100 μg/mL (enough to inhibit PA1 growth when not in a biofilm) is used.
At 24 hrs or 48 hrs post-treatment depending on the wells, the medium is carefully removed from each well and the remaining biofilm is picked from each well into a separate Eppendorf tube using a sterile tip. At this point, 1 mL of fresh BHIS is added to the biofilm tubes, sonicated to remove the phage inside for 5 minutes (Elmasonic S 100, at 37 kHz) (Elma Schmidbauer GmbH (Singen, Germany), and centrifuged (4 min, 4000 rpm, 25° C.). The supernatant containing the phage is carefully removed to a clean tube for quantification and the process was repeated a total of 3 times to make sure all phage are removed.
To quantify the surviving bacteria, the pellet is re-suspended in 100 μL BHIS, 10-fold serially diluted in BHIS and plated on BHIS agar plates. The plates are incubated for 72 hrs at 37° C. anaerobically after which the colonies are counted and results rounded to the nearest log. In parallel, the phage quantities inside the biofilm are tested by taking the supernatant set aside earlier, and using the aforementioned plaque assay to assess the original quantities.

CC[C@H]1OC(=O)[C@H](C)[C@@H](O[C@H]2C[C@@](C)(OC)[C@@H](O)[C@H](C)O2)[C@H](C)[C@@H](O[C@@H]2O[C@H](C)C[C@H](N(C)C)[C@H]2O)[C@](C)(O)C[C@@H](C)C(=O)[C@H](C)[C@@H](O)[C@]1(C)O [Erythromycin]
response of P. granulosum isolates to antibiotics [1]: sensitivity | Remaining log bacteria after phage or antibiotic treatment of biofilm (P. acnes PA1 biofilm; 24 hours post treatment): More than 9 Logs CFU | Remaining log bacteria after phage or antibiotic treatment of biofilm (P. acnes PA1 biofilm; 48 hours post treatment): 8 Logs CFU | decrease in bacterial counts in biofilm (P. acnes PA1 biofilm; after 24 hours): no visible decrease | remaining bacteria per milliliter (P. acnes PA1 biofilm; after 48 hours): 8 logs
